The values that follow come from patent EP0336800A1, “Methods and kit for determining sulfamethazine in animal fluids or feed” (IDETEK, INC., priority 1988, dated 1989).

The test system of the assay is anti-sulfamethazine antibody. Description: Competitive direct enzyme immunoassay (EIA) with immobilized anti-sulfamethazine antibody and sulfamethazine-HRP conjugate. The format is binding, New Zealand female white rabbits. The settings on record: for % Cross-Reactivity: (nM of sulfamethazine for 50% binding/nM sulfa analogue for 50% binding) x 100; for % Binding Mean: quadruplicate on 14 different days. The protocol:
Each well of the microtiter plate was filled with 200 µL solution of r-Protein A (2 µg/mL in l0 mM PBS, pH 7.2). These strips were sealed and incubated at 4°C for 5 hours. The r-Protein A solution was aspirated and the wells were washed 5 times with saline-Tween (0.9 percent NaCl containing 0.05 percent Tween-20). Each well was then incubated with 300µL solution of 0.l percent casein in 20 mM PBS, pH 7.2, at 37°C for 30 min and washed as described above. Each well was then filled with 200µL of antibody solution (l2.5 µg/mL in 50 mM carbonate-bicarbonate buffer, pH 9.6) and incubated at 4°C overnight (l5-20 hours). The solution was aspirated and the wells air-dried at room temperature for 2-3 hours. The antibody immobilized microtiter wells thus prepared were stored in ziplock bags at 4°C.
The enzyme conjugate (sulfamethazine-HRP) was appropriately diluted (generally l:l000) with 20 mM PBS, pH 7.2, containing 0.0l percent casein (w/v) and mixed with standards or samples in l0:l ratio. The mixture was transferred to wells ([…]) and incubated at 37°C for l hour. The wells were washed five times with 20 mM PBS, pH 7.2, containing 0.05 percent Tween-20 (v/v). Each well was then filled with l00 µL of ABTS substrate solution (combine l:l (v/v) lmM ABTS, 0.lM citrate, pH 4.0, and 0.0l% thimerosal with 0.0l% H₂O₂, and 0.0l% thimerosal) and incubated at 37°C for about 20 min for color (bluish-green) development. The color development was stopped with l00 µL of l percent SDS solution (w/v). Absorbance of the color was monitored at 405 nm in an EIA plate reader. Percent binding was calculated from the absorbance contained in the absence (B′) and presence (B) of sulfamethazine in standards/samples as follows: % binding = (B/B′) x l00.
A standard curve was prepared by plotting log sulfamethazine concentration vs. percent binding. The content of sulfamethazine in an unknown sample was determined from the standard curve.

“And” between values parts separate entries of the source, which are not always exact repeats. Equal values may be shown once.

Consider `Cc1cc(C(C)(C)C)c(O)c(C(C)(C)C)c1` [2,6-Di-tert.-butyl-4-methyl phenol], for which the “% Cross-Reactivity” value was 0.0%.

For `Cc1cc(C)nc(N)n1` [2-Amino-4,6-Dimethylpyrimidine], the “% Cross-Reactivity” value is 0.07%.

On to `NS(=O)(=O)c1ccc(C(=O)O)cc1` [4-Carboxybenzenesulfonamide], for which the “% Cross-Reactivity” value turned out to be 0.0%.

In the case of `COc1cnc(NS(=O)(=O)c2ccc(N)cc2)nc1` [5-Methoxysulfadiazine], the “% Cross-Reactivity” value was 0.34%.

With `Cc1nc(NS(=O)(=O)c2ccc(N)cc2)oc1C` [N′-(4,5-Dimethyloxazol-2-yl) sulfanilamide], the “% Cross-Reactivity” value came to 0.0%.

For `Nc1ccc(S(=O)(=O)Nc2ccc3cn[nH]c3c2)cc1` [N′-(6-Indazolyl) sulfanilamine], the “% Cross-Reactivity” value is 0.0%.

Consider `Nc1ccc(S(=O)(=O)NC(=O)c2ccccc2)cc1` [Sulfabenzamide], for which the “% Cross-Reactivity” value came to 0.0%.

Turning to `CC(=O)NS(=O)(=O)c1ccc(N)cc1` [Sulfacetamide], the “% Cross-Reactivity” value is on record as 0.66%.

With `Nc1ccc(S(=O)(=O)Nc2ccc(Cl)nn2)cc1` [Sulfachloropyridazine], the “% Cross-Reactivity” value was 0.0%.

Consider `Nc1ccc(S(=O)(=O)Nc2ncccn2)cc1` [Sulfadiazine], for which the “% Cross-Reactivity” value is 0.0%.

`COc1cc(NS(=O)(=O)c2ccc(N)cc2)nc(OC)n1` [Sulfadimethoxine]: the “% Cross-Reactivity” value amounted to 0.06%.

For `[H]/N=C(/N)NS(=O)(=O)c1ccc(N)cc1` [Sulfaguanidine], the “% Cross-Reactivity” value was 0.0%.

Take `Cc1ccnc(NS(=O)(=O)c2ccc(N)cc2)n1` [Sulfamerazine]: the “% Cross-Reactivity” value was 12% and 12.10%.

Consider `Cc1cc(C)nc(NS(=O)(=O)c2ccc(N)cc2)n1` [Sulfamethazine], for which the “% Cross-Reactivity” value is given as 100.0%. The “competition with sulfamethazine-HRP conjugate for antibody binding” value (competitive EIA at 0 µg/mL and 0.l µg/mL of sulfamethazine) is given as “competed effectively”. Where the note is “mid-region of the EIA standard curve, standards in swine plasma”, the “50% inhibition in binding” value was “around 0.l”. Besides, the “% Binding Mean” value (sulfamethazine standard 0.016 µg/mL) stood at 83.1%. The “% Binding Mean” value (sulfamethazine standard 0.031 µg/mL) is reported as 76.0%. Further, the “% Binding Mean” value (sulfamethazine standard 0.063 µg/mL) turned out to be 64.2%. The “% Binding Mean” value (sulfamethazine standard 0.125 µg/mL) was 48.4%. Further, where the note is “sulfamethazine standard 0.25 µg/mL”, the “% Binding Mean” value amounted to 31.4%. Besides, for the setting “sulfamethazine standard 0.5 µg/mL”, the “% Binding Mean” value came to 18.3%. Besides, the “% Binding Mean” value (sulfamethazine standard 1.0 µg/mL) was determined as 10.5%.

Turning to `Cc1nnc(NS(=O)(=O)c2ccc(N)cc2)s1` [Sulfamethizole], the “% Cross-Reactivity” value was 0.0%.

In the case of `Cc1cc(NS(=O)(=O)c2ccc(N)cc2)no1` [Sulfamethoxazole], the “% Cross-Reactivity” value is 0.0%.

`COc1ccc(NS(=O)(=O)c2ccc(N)cc2)nn1` [Sulfamethoxypyridazine]: the “% Cross-Reactivity” value stood at 0.0%.

On to `NS(N)(=O)=O` [Sulfamide], for which the “% Cross-Reactivity” value is reported as 0.0%.

Turning to `Nc1ccc(S(N)(=O)=O)cc1` [Sulfanilamide], the “% Cross-Reactivity” value stood at 0.0%.

On to `Nc1ccc(S(=O)(=O)[O-])cc1.O.[Na+]` [Sulfanilic acid, sodium salt hydrate], for which the “% Cross-Reactivity” value is 0.0%.

As for `Nc1ccc(S(=O)(=O)F)cc1` [Sulfanilyl fluoride], the “% Cross-Reactivity” value came out at 0.0%.

As for `CC(=O)Nc1ccc(S(=O)(=O)Nc2ccc([N+](=O)[O-])cc2)cc1` [Sulfanitran], the “% Cross-Reactivity” value came to 0.0%.

Take `Nc1ccc(S(=O)(=O)Nc2ccccn2)cc1` [Sulfapyridine]: the “% Cross-Reactivity” value was found to be 0.0%.

With `Nc1ccc(S(=O)(=O)Nc2cnc3ccccc3n2)cc1` [Sulfaquinoxaline], the “% Cross-Reactivity” value is given as 0.0%.

For `Nc1ccc(S(=O)(=O)Nc2nccs2)cc1` [Sulfathiazole], the “% Cross-Reactivity” value is reported as 0.07%.

As for `Cc1cc(NS(=O)(=O)c2ccc(N)cc2)nc(C)n1` [Sulfisomidine], the “% Cross-Reactivity” value worked out at 0.0%.

Regarding `Cc1noc(NS(=O)(=O)c2ccc(N)cc2)c1C` [Sulfisoxazole], the “% Cross-Reactivity” value is recorded as 0.0%.

For the molecule `Cc1c[nH]c(=O)[nH]c1=O` [Thymine], the “% Cross-Reactivity” value came out at 0.0%.

Take Sulfasazine: the “% Cross-Reactivity” value is reported as 0.0%.
